In patent US20250082595A1, “METHODS AND COMPOSITIONS FOR TREATING PARKINSON’S DISEASE” (priority 2022, published 2025):
Values joined by “and” are separate entries in the source; they are usually repeats but may differ in a detail not shown here. Equal entries are not always repeated.

What was measured:
[1] = Plasma exposure (AUC) of LD and CD after SC infusion, oral IR tablet, and SC + oral coadministration of LD/CD; assay type: in vivo
Excerpt: A test was run in order to assess the plasma exposure of levodopa (LD) following the coadministration of LD and carbidopa (CD) in both subcutaneous (SC) and oral administrations. Accordingly, results obtained from a combined SC+oral administration were compared to results obtained from SC administration alone and from oral administration alone. An additive plasma exposure and PK profile was expected, i.e., it was expected that the SC+oral coadministration would provide results equal to the additive results of the SC and oral administrations, when each was administered separately.
16 healthy subjects (18-50 years) were treated in a crossover manner, i.e., sequentially, with a washout period of 6 days between the following two treatments: • Treatment A: A total dose of 180/22.5 mg LD/CD (formulation A) was administered by SC infusion over the course of 8 hours, at a steady infusion rate. • Treatment B: An immediate release (IR) tablet of 100/25 mg LD/CD was administered orally at time 0 h.
Following a 32 hour washout period, the same 16 healthy subjects were administered with LC/CD both orally and subcutaneously according to the following treatment: • Treatment C: A dose of 153.6/19.2 LD/CD (formulation A) was administered by SC infusion over the course of 8 hours, at a steady infusion rate, combined with a single co-administration of an oral IR LD/CD 100/25 mg tablet, 4 hours after the initiation of the infusion. Total LD/CD dose: 253.6/44.2 mg.
The normalized AUC0-8 of LD and CD of Treatment C, resulting from the combined SC and oral treatment, as described above, was calculated and compared to the sum of the normalized LD and CD AUCs obtained from Treatment A (AUC0-8 resulting from 8 h SC infusion) and Treatment B (AUC0-4 resulting from one IR oral tablet).

[2] = Procedure: The objective of this study was to determine the pharmacokinetics (PK) of levodopa (LD) in domestic pigs following continuous subcutaneous (SC) infusion of a levodopa prodrug, exemplified using LD-Tyr, administered concomitantly with oral Levodopa.
Table 6 provides the LD-Tyr formulation tested in this study: […]
The study consisted of 3 dosing sessions in which 5 female pigs (Swine/Landrace×large White, ˜40-50 kg each) were treated with the LD-Tyr solution of Table 6 and/or Sinemet JR oral tablets (CD/LD 25/100 mg tablet) in a cross-over design with up to 4-day washout period between dosing sessions, as detailed in the following tables:
As presented in Tables 7 and 8 above, the study included the following three test groups: • G1—received only SC LD-Tyr (600 mg total daily dose); • G2—received only oral LD (300 mg total daily dose); and • G3—received both SC LD-Tyr (600 mg total daily dose) and oral LD (200 mg total daily dose).
Blood samples for the determination of LD-Tyr (in groups 1 and 3), as well as LD and CD plasma levels (in all groups) were collected from the pigs at the following timepoints: • 0 (pre-dose), 30 min, 1 h, 2 h, 3 h, 4 h, 4.5 h, 5 h, 6 h, 7 h, 8 h, 8.5 h, 9 h, 10 h, 11 h, 13 h, 15 h 18 h following treatment initiation. Tablets were administered before blood collection (time 0, 4 and 8 h).
Plasma samples were analyzed for concentration of LD-Tyr (groups 1 and 3), as well as LD and CD (for all groups) using a qualified LC-MS/MS analytical method.
PK parameters (at least Cmax, tmax, t1/2, AUC) for LD-Tyr, LD and CD were calculated by noncompartmental methods using appropriate software (e.g. Phoenix® WinNonlin®). Individual and mean was calculated for quantitative parameters.
The LD exposure obtained from the SC infusion is considered to be the baseline.

[3] = geomean of group, Treatment A SC 8 h, normalized × 0.853
[4] = geomean of group, oral IR tablet 100/25 mg LD/CD

## C[C@@](Cc1ccc(O)c(O)c1)(NN)C(=O)O [CD, carbidopa]
[1]; geomean of group, SC + oral
  CD: 4. Treatment C AUC (0-8) [Observed], Geomean Group: 1051
[1]; [3]
  CD: 1. Treatment A AUC (0-8) × 0.853, Geomean Group: 900
[1]; [4]
  CD: 2. Treatment B AUC (0-4), Geomean Group: 309
[1]; human, in vivo
  CD: 3. Combined 1 + 2 [Estimated], Geomean Group: 1209
  CD: Observed (C) vs. Additive Ratio, Geomean Group (mean ratio): 0.869
  CD: Observed (C) vs. Additive Ratio, Geomean Individual: 0.866
[1]; individual subject (ID), SC 153.6/19.2 LD/CD over 8 h + oral IR LD/CD 100/25 mg tablet at 4 h
  CD: 4. Treatment C AUC (0-8) [Observed]: 1086
[1]; individual subject (ID), Treatment A: 180/22.5 mg LD/CD formulation A, SC infusion over 8 h, AUC × 0.853
  CD: 1. Treatment A AUC (0-8) × 0.853: 955 and 988 and 925
[1]; individual subject (ID), oral IR tablet 100/25 mg LD/CD at 0 h
  CD: 2. Treatment B AUC (0-4): 318

## N[C@@H](Cc1ccc(O)c(O)c1)C(=O)O [LD, L-3,4-dihydroxyphenylalanine]
[2]; animal 115 excluded
  Synergism ratio, Mean: 1.57
  Synergism ratio, Median: 1.49
[2]; individual pig
  Synergism ratio (actual / predicted LD AUC of oral add-ons): above 1
[2]; pigs, SC LD-Tyr/CD + oral LD/CD
  Increase of LD plasma exposure by oral add-ons, on top of LD exposure from SC administration alone, versus predicted (average): over 50%
[1]; geomean of group, SC 153.6/19.2 LD/CD over 8 h + oral 100/25 mg tablet at 4 h
  LD: 4. Treatment C AUC (0-8) [Observed], Geomean Group: 4817
[1]; [3]
  LD: 1. Treatment A AUC (0-8) × 0.853, Geomean Group: 2412
[1]; [4]
  LD: 2. Treatment B AUC (0-4), Geomean Group: 1458
[1]; geomean of group, sum A + B
  LD: 3. Combined 1 + 2 [Estimated], Geomean Group: 3870
[1]; geomean of individual ratios
  LD: Observed (C) vs. Additive Ratio, Geomean Individual: 1.240
[1]; group geomean, Treatment C vs. A+B
  LD: Observed (C) vs. Additive Ratio, Geomean Group (mean ratio): 1.245
[1]; individual subject (ID), Treatment A: 180/22.5 mg LD/CD formulation A, SC infusion over 8 h, AUC × 0.853 to equal SC dose of Treatment C
  LD: 1. Treatment A AUC (0-8) × 0.853: 2236 and 2266 and 2218
[1]; individual subject (ID), Treatment C: 153.6/19.2 LD/CD formulation A SC over 8 h + oral IR LD/CD 100/25 mg tablet at 4 h
  LD: 4. Treatment C AUC (0-8) [Observed]: 6325 and 5031 and 5059 and 4610 and 3961
[1]; individual subject (ID), sum of normalized Treatment A AUC and Treatment B AUC
  LD: 3. Combined 1 + 2 [Estimated]: 3087
